Laboratory results from patent US20060063711A1, “Use of sglt homolog” (priority 2002, published 2006).

Legend:
[1] = tested on: hamster small intestine; assay: glucose uptake in small intestine by the organ culture system; details: hamster jejunal slices, NaCl + 30 μM Phlorizin, 10 minutes at 37° C.
Method: The glucose uptake level was determined by the intestinal organ culture system in accordance with the procedures described in Peptides, 19: 1249-1253, 1998 and J. Agric. Food Chem., 48: 5618-5623, 2000. The carotid was cut in mice, rats, guinea pigs and hamsters under ether anesthesia to put them to death. The jejunal region was excised, mesenteric fats were removed, the tract was dissected and the contents were washed and cut in 1 cm length. The jejunal slices were washed 3 times with a buffer solution (125 mM N-Methyl-D-Glucamine (NMDG), 1.2 mM KH2PO4, 2.5 mM CaCl2, 1.2 mM MgSO4, 4 mM Glutamine, 10 mM HEPES (pH 7.2), 0.1 mg/ml BSA) and then transferred to a 48-well plate by one slice/well. […]. The jejunal slices were transferred to a mini-vial for liquid scintillation counting. After 500 μl of tissue solubilizer Solvable (Perkin Elmer LifeSciences) was added thereto, the mixture was treated at 50° C. for 2 hours to solubilize the tissues. After 5 ml of liquid scintillator Ultima Gold-XR (Perkin Elmer LifeSciences) was added, ^14C and ^3H taken up into the jejunal slices were counted. […]

[2] = tested on: rat SGLT homolog (rSGLTh); assay: α-methyl glucose uptake in CHO cells expressing rSGLTh; type: cell-based; details: control = NMDG without NaCl
Method: In accordance with the procedures described in Example 4 of WO 02/53738, the CHO cell lines expressing the human SGLT homolog (hSGLTh), mouse SGLT homolog (mSGLTh), rat SGLT homolog (rSGLTh), human SGLT1 (hSGLT1) and human SGLT2 (hSGLT2) were prepared, respectively, and used for experiments. The experimental uptake of α-methyl glucose, which is a glucose analog selectively taken up into the cells by SGLT, was carried out according to the method described in Am. J. Physiol., 270: G833-G843, 1996 and J. Clin. Invest., 93: 397-404, 1994. The cells were plated on 100 μl of DMEM containing 10% FBS charged in a 96-well plate in a cell density of 1×10^5 cells/well, followed by culturing overnight at 37° C. The cells were washed 3 times with 150 μl of a buffer solution (125 mM N-Methyl-D-Glucamine, 1.2 mM KH2PO4, 2.5 mM CaCl2, 1.2 mM MgSO4, 4 mM Glutamine, 10 mM HEPES (pH 7.2), 0.1 mg/ml BSA) and cultured for an hour in the same buffer solution to remove the remaining glucose. The buffer solution was removed and replaced with 90 μl of the same buffer solution or the buffer solution containing NaCl or NaCl+Phlorizin (Sigma) in place of N-Methyl-D-Glucamine (NMDG). […] The radioactivity of ^14C taken up into the cells was counted with 100 μl of a liquid scintillator added per well.

[3] = molecular target: T1, human SGLT homolog (hSGLTh) (Homo sapiens, UniProt Q2M3M2, I269M); assay: α-methyl glucose uptake in CHO cells expressing hSGLTh; type: cell-based; details: for Uptake of α-Methyl Glucose (% based on Control Group): hSGLTh CHO cells, control = NMDG without NaCl
T1 construct: expressed in transfected cells; host or cells: CHO cells
T1 sequence (Q2M3M2 8-681 I269M limits assumed): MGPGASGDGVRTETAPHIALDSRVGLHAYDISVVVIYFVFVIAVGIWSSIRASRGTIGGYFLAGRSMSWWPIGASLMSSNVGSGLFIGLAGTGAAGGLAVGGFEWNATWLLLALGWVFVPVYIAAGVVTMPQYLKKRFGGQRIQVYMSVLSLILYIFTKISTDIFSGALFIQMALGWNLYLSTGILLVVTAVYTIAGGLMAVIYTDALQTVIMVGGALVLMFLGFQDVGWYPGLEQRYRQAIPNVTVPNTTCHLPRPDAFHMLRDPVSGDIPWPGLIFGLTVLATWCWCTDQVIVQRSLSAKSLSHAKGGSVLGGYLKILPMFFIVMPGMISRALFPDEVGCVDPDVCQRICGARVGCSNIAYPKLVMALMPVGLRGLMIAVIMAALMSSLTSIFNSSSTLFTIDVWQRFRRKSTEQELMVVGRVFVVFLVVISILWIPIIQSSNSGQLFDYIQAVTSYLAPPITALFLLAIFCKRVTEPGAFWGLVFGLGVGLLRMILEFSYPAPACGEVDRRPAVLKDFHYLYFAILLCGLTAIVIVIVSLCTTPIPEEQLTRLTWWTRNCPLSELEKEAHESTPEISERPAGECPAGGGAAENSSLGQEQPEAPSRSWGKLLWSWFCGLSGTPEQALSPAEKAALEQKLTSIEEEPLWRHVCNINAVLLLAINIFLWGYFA
Method: In accordance with the procedures described in Example 4 of WO 02/53738, the CHO cell lines expressing the human SGLT homolog (hSGLTh), mouse SGLT homolog (mSGLTh), rat SGLT homolog (rSGLTh), human SGLT1 (hSGLT1) and human SGLT2 (hSGLT2) were prepared, respectively, and used for experiments. The experimental uptake of α-methyl glucose, which is a glucose analog selectively taken up into the cells by SGLT, was carried out according to the method described in Am. J. Physiol., 270: G833-G843, 1996 and J. Clin. Invest., 93: 397-404, 1994. The cells were plated on 100 μl of DMEM containing 10% FBS charged in a 96-well plate in a cell density of 1×10^5 cells/well, followed by culturing overnight at 37° C. The cells were washed 3 times with 150 μl of a buffer solution (125 mM N-Methyl-D-Glucamine, 1.2 mM KH2PO4, 2.5 mM CaCl2, 1.2 mM MgSO4, 4 mM Glutamine, 10 mM HEPES (pH 7.2), 0.1 mg/ml BSA) and cultured for an hour in the same buffer solution to remove the remaining glucose. The buffer solution was removed and replaced with 90 μl of the same buffer solution or the buffer solution containing NaCl or NaCl+Phlorizin (Sigma) in place of N-Methyl-D-Glucamine (NMDG). After one-hour incubation with 10 μl of 1 mM α-methyl glucose (containing 0.02 μCi of [^14C]-α-Methyl Glucose (Amersham Pharmacia Biotech)) per well, the cells were washed 3 times with 200 μl of chilled PBS buffer. The radioactivity of ^14C taken up into the cells was counted with 100 μl of a liquid scintillator added per well.

O=C(CCc1ccc(O)cc1)c1c(O)cc(O)cc1O[C@@H]1O[C@H](CO)[C@@H](O)[C@H](O)[C@H]1O [phlorizin]
SGLT activity (α-methyl glucose uptake) resistance to phloridzin [1]: strongly resistant
Uptake of α-Methyl Glucose (% based on Control Group) ([2]; NaCl + 15 μM phlorizin): 643 ± 76%
Uptake of α-Methyl Glucose (% based on Control Group) ([2]; NaCl + 500 μM): 118 ± 6%
Uptake of α-Methyl Glucose (% based on Control Group) ([3]; NaCl + 3 μM phlorizin): 570 ± 142%
Uptake of α-Methyl Glucose (% based on Control Group) ([3]; NaCl + 100 μM phlorizin): 124 ± 19%
resistance to phlorizin ([3]; human SGLT homolog compared with SGLT1 and SGLT2): more potent than in SGLT1 and SGLT2
